The data set can be described thus: Absorption maxima of dyes (Table 1). The data set is classed as physicochemical.
`CCN(CC)c1ccc(C(=C2C=CC(=[N+](CC)CC)C=C2)c2cc(O)c(S(=O)(=O)O)cc2S(=O)(=O)O)cc1` [Patent Blue]: the “Absorption maxima of dyes” value stood at 635 nm.

As for `O=C([O-])C1=NN(c2ccc(S(=O)(=O)[O-])cc2)C(=O)C1N=Nc1ccc(S(=O)(=O)[O-])cc1.[Na+].[Na+].[Na+]` (centres unmarked) [Tartrazine], the “Absorption maxima of dyes” value came out at 425 nm.

As for `Cc1cc(-c2ccc(/N=N/c3c(S(=O)(=O)O)cc4cc(S(=O)(=O)O)cc(N)c4c3O)c(C)c2)ccc1/N=N/c1c(S(=O)(=O)O)cc2cc(S(=O)(=O)O)cc(N)c2c1O` [Trypan Blue], the “Absorption maxima of dyes” value turned out to be 607 nm.

As to Acid Fuchsin, the “Absorption maxima of dyes” value is given as 546 nm.

As for Acid Red 37, the “Absorption maxima of dyes” value amounted to 513 nm.
